Where two headings read alike, the source gives them in different places.
Tests used:
IRE1 = biological target: T1, IRE1 (Saccharomyces cerevisiae, UniProt P32361); experiment: IRE1 inhibitors screening (inhibition of transcriptional activator HAC1 in yeast); type: cell-based; settings: for IC50: read-out: IRE1 IC50
T1 construct: endogenous in cells
From the text: A series of natural products were screened for their capacity to inhibit the UPR pathway via the inhibition of IRE1 in an in vitro screening test, based inhibition of the transcriptional activator HAC1 in Saccharomyces cerevisiae (the IRE1 protein is the ‘sole effector of the UPR pathway in fungi).

Alternaria brassicicola = experiment: In vitro nephelometric fungal growth test; settings: for Cmax (concentration inducing at most 20% inhibition of fungal growth) / CTP (retained non-fungicidal concentration applied in planta): A. brassicicola; for CTP (retained non-fungicidal concentration applied in planta): inferior to MIG50 and inferior or equal to Cmax; for IC50: Alternaria brassicicola, 33 h, read-out: MIG50 (concentration inducing 50% inhibition of fungal growth)
Experimental: (§1) For inoculum preparation, conidia of A. brassicicola or B. cinerea were collected from solid culture by adding water followed by gentle scraping of the agar plate. […] Growth was monitored by nephelometric reader (NEPHELOstar Galaxy®, BMG Labtech, Offenburg, Germany) at 25° C., with orbital shaking 5 min before measurement for 33 h. Turbidity was registered every 10 mins with a gain value of 75. Each well was measured during 0.1 s with a laser beam focus of 2.5 mm. A triplicate was realized for each condition. Area under the growth curve was determined by an Excel matrix developed in the lab. Area under the growth curve was normalized by area of positive control (filamentous fungi+DMSO less compound) and PDB medium to obtain a growth percentage.

Botrytis cinerea = experiment: In vitro nephelometric fungal growth test; settings: for CTP (retained non-fungicidal concentration applied in planta): inferior to MIG50 and inferior or equal to Cmax; for IC50: Botrytis cinerea, 33 h, read-out: MIG50 (concentration inducing 50% inhibition of fungal growth)
Experimental: as §1

[1] = in vitro screening, IRE1 activity of less than 80% = retained as IRE1 inhibitor

T1 sequence (P32361 19-1115): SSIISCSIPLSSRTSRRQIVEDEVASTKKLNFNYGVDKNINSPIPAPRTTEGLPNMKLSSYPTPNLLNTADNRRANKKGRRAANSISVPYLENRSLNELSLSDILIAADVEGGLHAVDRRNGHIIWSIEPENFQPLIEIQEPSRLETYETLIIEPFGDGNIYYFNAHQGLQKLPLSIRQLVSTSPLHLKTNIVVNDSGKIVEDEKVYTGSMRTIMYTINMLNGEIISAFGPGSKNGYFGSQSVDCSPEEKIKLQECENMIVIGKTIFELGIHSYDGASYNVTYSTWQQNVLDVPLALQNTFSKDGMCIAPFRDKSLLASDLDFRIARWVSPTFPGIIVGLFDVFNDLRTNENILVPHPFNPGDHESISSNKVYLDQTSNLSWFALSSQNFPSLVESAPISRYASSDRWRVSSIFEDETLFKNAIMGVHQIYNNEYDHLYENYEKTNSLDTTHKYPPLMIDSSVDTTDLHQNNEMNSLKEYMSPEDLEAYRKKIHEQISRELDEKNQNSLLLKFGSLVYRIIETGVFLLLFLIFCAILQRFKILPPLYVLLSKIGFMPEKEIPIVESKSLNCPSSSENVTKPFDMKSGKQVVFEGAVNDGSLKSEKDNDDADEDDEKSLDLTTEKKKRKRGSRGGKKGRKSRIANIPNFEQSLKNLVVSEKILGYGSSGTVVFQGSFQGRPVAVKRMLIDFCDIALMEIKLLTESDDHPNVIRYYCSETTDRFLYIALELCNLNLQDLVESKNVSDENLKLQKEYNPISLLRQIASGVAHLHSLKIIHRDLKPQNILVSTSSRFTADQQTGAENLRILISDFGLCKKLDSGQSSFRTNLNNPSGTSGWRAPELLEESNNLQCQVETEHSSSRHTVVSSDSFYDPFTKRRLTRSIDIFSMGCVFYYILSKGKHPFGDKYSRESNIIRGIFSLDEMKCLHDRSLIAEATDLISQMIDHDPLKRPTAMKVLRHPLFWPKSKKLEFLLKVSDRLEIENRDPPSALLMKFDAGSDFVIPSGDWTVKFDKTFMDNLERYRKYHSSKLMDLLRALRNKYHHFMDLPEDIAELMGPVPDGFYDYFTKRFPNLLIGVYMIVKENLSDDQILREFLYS

Compound: CC(C)=CCc1c(O)cc(O)c2c(=O)c3cccc(O)c3oc12 [1,3,5-trihydroxy-4-prenylxanthone, 1,3,5-trihydroxy-4-(3-methylbut-2-enyl)xanthen-9-one]
- IRE1 inhibition (in words) (IRE1): inhibit IRE1 in a micromolar scale
- μ (% activation) ± σ (IRE1; [1]): 70.9 ± 3.2%
- IC50 (IRE1): 12.8 µM
- Cmax (concentration inducing at most 20% inhibition of fungal growth) (Alternaria brassicicola): 10 µM
- CTP (retained non-fungicidal concentration applied in planta) (Alternaria brassicicola): 10 µM
- IC50 (Alternaria brassicicola): 41.3 ± 3.7 µM
- Cmax (concentration inducing at most 20% inhibition of fungal growth) (Botrytis cinerea; B. cinerea): 100 µM
- CTP (retained non-fungicidal concentration applied in planta) (Botrytis cinerea; B. cinerea): 25 µM
- IC50 (Botrytis cinerea): > 100 µM

Compound: CC(C)=CCc1c(O)cc2oc3cc(O)c(O)c(CC=C(C)C)c3c(=O)c2c1O [γ-mangostin, 1,3,6,7-tetrahydroxy-2,8-bis(3-methylbut-2-enyl)xanthen-9-one]
- IRE1 inhibition (in words) (IRE1): inhibit IRE1 in a micromolar scale
- μ (% activation) ± σ (IRE1): 8.7 ± 5.5%
- IC50 (IRE1): 7.3 µM
- Cmax (concentration inducing at most 20% inhibition of fungal growth) (Alternaria brassicicola): 5 µM
- CTP (retained non-fungicidal concentration applied in planta) (Alternaria brassicicola): 5 µM
- IC50 (Alternaria brassicicola): 12.2 ± 0.2 µM
- Cmax (concentration inducing at most 20% inhibition of fungal growth) (Botrytis cinerea; B. cinerea): 100 µM
- CTP (retained non-fungicidal concentration applied in planta) (Botrytis cinerea; B. cinerea): 25 µM
- IC50 (Botrytis cinerea): > 100 µM
- effect on the antifungal effects of ε-viniferin (in words) (Botrytis cinerea; γ-mangostin 100 μM + ε-viniferin 100 μM, B. cinerea, 35 hours): potentiating effect

Compound: CC(C)=CCc1c(O)cc2oc3c(O)cccc3c(=O)c2c1O [1,3,5-trihydroxy-2-prenylxanthone, 1,3,5-trihydroxy-2-(3-methylbut-2-enyl)xanthen-9-one]
- IRE1 inhibition (in words) (IRE1): inhibit IRE1 in a micromolar scale
- μ (% activation) ± σ (IRE1; [1]): 57.4 ± 4.9%
- Cmax (concentration inducing at most 20% inhibition of fungal growth) (Alternaria brassicicola): 100 µM
- CTP (retained non-fungicidal concentration applied in planta) (Alternaria brassicicola): 50 µM
- IC50 (Alternaria brassicicola): > 100 µM
- Cmax (concentration inducing at most 20% inhibition of fungal growth) (Botrytis cinerea; B. cinerea): 100 µM
- CTP (retained non-fungicidal concentration applied in planta) (Botrytis cinerea; B. cinerea): 25 µM
- IC50 (Botrytis cinerea): > 100 µM

Compound: COc1ccc2c(c[n+](C)c3c4cc5c(cc4ccc23)OCO5)c1OC [Chelerythrine]
- μ (% activation) ± σ (IRE1; [1]): 103.2 ± 3.6%

Compound: (−)-monomethylester-15 dehydropinifolic acid
- μ (% activation) ± σ (IRE1; [1]): 103.8 ± 1.1%

Compound: CC(C)=CCOC(=O)/C=C/c1ccc(O)c(O)c1 [Prenyl caffeate]
- μ (% activation) ± σ (IRE1; [1]): 102.4 ± 0.8%

Compound: Cycleanine
- μ (% activation) ± σ (IRE1): 102.2 ± 1.9%

Compound: CC(C)=C/C=C/C(C)=C/[C@H]1CC[C@@H]2[C@@]3(C)CC[C@H](O)C(C)(C)[C@@H]3CC[C@@]2(C)[C@@]12COC(=O)C2 [Ebelin lactone]
- μ (% activation) ± σ (IRE1; [1]): 102.5 ± 0.9%

Compound: CCCC(=O)c1c(O)c(CC=C(C)C)c2oc(=O)cc(-c3ccccc3)c2c1O [Mammea A/AC]
- μ (% activation) ± σ (IRE1; [1]): 102.4 ± 1.7%

Compound: 2-Deprenyl-rheediaxanthone B
- μ (% activation) ± σ (IRE1; [1]): 97.3 ± 4.2%

Compound: Mammea A/AA cycloF
- μ (% activation) ± σ (IRE1; [1]): 93.8 ± 1.1%

Compound: CC(C)=CCc1c(O)cc2oc3c(CC=C(C)C)c(O)c(O)c(CC=C(C)C)c3c(=O)c2c1O [Garcinon E]
- μ (% activation) ± σ (IRE1; [1]): 101.6 ± 3.9%

Compound: O=C1c2c(O)cc(O)cc2O[C@@H](c2ccc(O)cc2)[C@@H]1c1c(O)cc(O)c2c(=O)cc(-c3ccc(O)cc3)oc12 (racemic) [(±)-Volkensiflavone]
- μ (% activation) ± σ (IRE1; [1]): 95.8 ± 0.5%

Compound: O=Cc1cc(I)cc(I)c1O [DISA1, 3,5-diiodosalicylaldehyde, reference compound]
- Cmax (concentration inducing at most 20% inhibition of fungal growth) (Alternaria brassicicola): 2 µM
- CTP (retained non-fungicidal concentration applied in planta) (Alternaria brassicicola): 2 µM
- IC50 (Alternaria brassicicola): 5.3 ± 0.1 µM
- Cmax (concentration inducing at most 20% inhibition of fungal growth) (Botrytis cinerea; B. cinerea): 2.5 µM
- CTP (retained non-fungicidal concentration applied in planta) (Botrytis cinerea; B. cinerea): 2.5 µM
- IC50 (Botrytis cinerea): 6.3 ± 0.7 µM

Compound: C[C@H](C/C=C/C(C)(C)O)[C@@H]1CC[C@]2(C)C3=C(CC[C@@]12C)[C@@]1(C)CC[C@H](O)C(C)(C)C1CC3 (stereo partly drawn) [(20R,23E)-Eupha-8,23-diene-3b,25-diol]
- μ (% activation) ± σ (IRE1; [1]): 100.6 ± 2.5%

Compound: O=C1C[C@@H](c2ccc(O)cc2)Oc2cc(O)cc(O)c21 [Naringenin]
- μ (% activation) ± σ (IRE1; [1]): 101.1 ± 1.2%

Compound: CC1=C[C@H]2c3c(c(O)c(O)c4oc5cc(O)cc(O)c5c(=O)c34)[C@H](c3cc(O)c(O)c4oc5cc(O)cc(O)c5c(=O)c34)[C@H]2C(C)(C)C1 [Griffipavixanthone]
- μ (% activation) ± σ (IRE1; [1]): 96.8 ± 1.3%

Compound: O=c1c2ccc(O)c(O)c2oc2cc(O)cc(O)c12 [1,3,5,6-tétra-hydroxy-xanthone]
- μ (% activation) ± σ (IRE1; [1]): 103.9 ± 0.7%

Compound: Oc1cc(O)c2c(c1)O[C@H](c1ccc(O)c(O)c1)[C@H](O)C2 [Epicatechin]
- μ (% activation) ± σ (IRE1; [1]): 101.4 ± 0.4%

Compound: COc1cc2oc3cc(O)c(OC)c(CC=C(C)C)c3c(=O)c2c(O)c1CC=C(C)C [β-mangostin]
- μ (% activation) ± σ (IRE1; [1]): 100.3 ± 4.7%

Compound: COc1c(O)cc2oc3cc4c(c(O)c3c(=O)c2c1CC=C(C)C)C=CC(C)(C)O4 [9-hydroxycalabaxanthone]
- μ (% activation) ± σ (IRE1; [1]): 103.5 ± 2.8%

Compound: (-)-Curine
- μ (% activation) ± σ (IRE1; [1]): 100.0 ± 3.8%

Compound: Pseudoanibacanine
- μ (% activation) ± σ (IRE1; [1]): 100.0 ± 3.7%

Compound: demethylrubraxanthone
- IC50 (IRE1): 6.5 ± 0.4 µM
